Test results: publication PMC11743413 (Bioresources and Bioprocessing, 2025)

Biological target: T1, SerE (Corynebacterium glutamicum, UniProt Q8NSR3)
T1 construct: gene Cgl0605
Details: L-proline released from Pro-Gly in the cells; acid-ninhydrin assay

T1 sequence (Q8NSR3 1-307): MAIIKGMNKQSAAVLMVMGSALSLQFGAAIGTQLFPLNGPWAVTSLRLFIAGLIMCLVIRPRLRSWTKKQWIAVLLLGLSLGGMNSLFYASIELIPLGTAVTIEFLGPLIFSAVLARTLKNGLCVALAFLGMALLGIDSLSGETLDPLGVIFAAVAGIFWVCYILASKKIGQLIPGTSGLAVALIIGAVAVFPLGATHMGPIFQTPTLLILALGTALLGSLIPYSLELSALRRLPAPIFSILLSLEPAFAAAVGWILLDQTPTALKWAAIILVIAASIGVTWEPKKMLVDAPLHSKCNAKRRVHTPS

## O=C(O)[C@@H]1CCCN1 [L-proline]
  amino acid export assay after Pro-Gly dipeptide addition; serE deletion versus o: SerE is indeed as an L-proline exporter
